Data reported in US11427549B2, “Pyrimidinyloxy benzo-fused compounds as herbicides” (FMC Corporation, priority 2017, dated 2022).

Columns and labels:
[1] = tested on: barnyardgrass (Echinochloa crus-galli); experiment: Test A preemergence, barnyardgrass; assay type: in vivo; conditions: Echinochloa crus-galli, pre-emergence, 240 h, 0 to 100 scale (0 no effect, 100 complete control), read-out: Plant response rating, Barnyardgrass; for pest or weed control at 125 g/ha: 125 g ai/ha
kochia (Kochia scoparia) [2] = experiment: Test A preemergence, kochia; assay type: in vivo; conditions: Bassia scoparia, pre-emergence, 240 h, 0 to 100 scale (0 no effect, 100 complete control), read-out: Plant response rating, Kochia; for pest or weed control at 125 g/ha: 125 g ai/ha
[3] = tested on: ragweed (common ragweed, Ambrosia elatior); experiment: Test A preemergence, ragweed; assay type: in vivo; conditions: Ambrosia artemisiifolia, pre-emergence, 240 h, 0 to 100 scale (0 no effect, 100 complete control), read-out: Plant response rating, Ragweed; for pest or weed control at 125 g/ha: 125 g ai/ha
[4] = tested on: ryegrass, Italian (Italian ryegrass, Lolium multiflorum); experiment: Test A preemergence, ryegrass, Italian; assay type: in vivo; conditions: Lolium multiflorum, pre-emergence, 240 h, 0 to 100 scale (0 no effect, 100 complete control), read-out: Plant response rating, Ryegrass, Italian; for pest or weed control at 125 g/ha: 125 g ai/ha
[5] = tested on: pigweed (Amaranthus retroflexus); experiment: Test A preemergence, pigweed; assay type: in vivo; conditions: Amaranthus retroflexus, pre-emergence, 240 h, 0 to 100 scale (0 no effect, 100 complete control), read-out: Plant response rating, Pigweed; for pest or weed control at 125 g/ha: 125 g ai/ha
[6] = tested on: barnyardgrass (Echinochloa crus-galli); experiment: Test A postemergence, barnyardgrass; assay type: in vivo; conditions: Echinochloa crus-galli, post-emergence, 240 h, 0 to 100 scale (0 no effect, 100 complete control), read-out: Plant response rating, Barnyardgrass; for pest or weed control at 125 g/ha: 125 g ai/ha
kochia (Kochia scoparia) [7] = experiment: Test A postemergence, kochia; assay type: in vivo; conditions: Bassia scoparia, post-emergence, 240 h, 0 to 100 scale (0 no effect, 100 complete control), read-out: Plant response rating, Kochia; for pest or weed control at 125 g/ha: 125 g ai/ha
[8] = tested on: ragweed (common ragweed, Ambrosia elatior); experiment: Test A postemergence, ragweed; assay type: in vivo; conditions: Ambrosia artemisiifolia, post-emergence, 240 h, 0 to 100 scale (0 no effect, 100 complete control), read-out: Plant response rating, Ragweed; for pest or weed control at 125 g/ha: 125 g ai/ha
[9] = tested on: ryegrass, Italian (Italian ryegrass, Lolium multiflorum); experiment: Test A postemergence, ryegrass, Italian; assay type: in vivo; conditions: Lolium multiflorum, post-emergence, 240 h, 0 to 100 scale (0 no effect, 100 complete control), read-out: Plant response rating, Ryegrass, Italian; for pest or weed control at 125 g/ha: 125 g ai/ha
[10] = tested on: pigweed (Amaranthus retroflexus); experiment: Test A postemergence, pigweed; assay type: in vivo; conditions: Amaranthus retroflexus, post-emergence, 240 h, 0 to 100 scale (0 no effect, 100 complete control), read-out: Plant response rating, Pigweed; for pest or weed control at 125 g/ha: 125 g ai/ha
[11] = tested on: wheat (Triticum aestivum); experiment: Test A postemergence, wheat; assay type: in vivo; conditions: Triticum aestivum, post-emergence, 240 h, 0 to 100 scale (0 no effect, 100 complete control), read-out: Plant response rating, Wheat; for plant injury at 125 g/ha: 125 g ai/ha
corn (Zea mays) = experiment: Test A postemergence, corn; assay type: in vivo; conditions: Zea mays, post-emergence, 240 h, 0 to 100 scale (0 no effect, 100 complete control); for Corn plant response rating (crop injury, 0 = no effect, 100 = complete kill) at 125 g/ha: 125 g ai/ha
[12] = tested on: blackgrass (Alopecurus myosuroides); experiment: Test A postemergence, blackgrass; assay type: in vivo; conditions: Alopecurus myosuroides, post-emergence, 240 h, 0 to 100 scale (0 no effect, 100 complete control), read-out: Plant response rating, Blackgrass; for pest or weed control at 125 g/ha: 125 g ai/ha
[13] = tested on: galium (catchweed bedstraw, Galium aparine); experiment: Test A postemergence, galium; assay type: in vivo; conditions: Galium, post-emergence, 240 h, 0 to 100 scale (0 no effect, 100 complete control), read-out: Plant response rating, Galium; for pest or weed control at 125 g/ha: 125 g ai/ha
rice (Oryza sativa) = experiment: Test B flooded paddy test, rice; conditions: Oryza sativa, read-out: Plant response rating, Rice (0 to 100 scale, 0 is no effect, 100 is complete control)
[14] = tested on: ducksalad (Heteranthera limosa); experiment: Test B flooded paddy test, ducksalad; conditions: Heteranthera limosa, read-out: Plant response rating, Ducksalad (0 to 100 scale, 0 is no effect, 100 is complete control)
[15] = tested on: barnyardgrass (Echinochloa crus-galli); experiment: Test B flooded paddy test, barnyardgrass; conditions: Echinochloa crus-galli, read-out: Plant response rating, Barnyardgrass (0 to 100 scale, 0 is no effect, 100 is complete control)

Row | Structure (SMILES) | pest or weed control at 125 g/ha [1] | pest or weed control at 125 g/ha (kochia (Kochia scoparia) [2]) | pest or weed control at 125 g/ha [3] | pest or weed control at 125 g/ha [4] | pest or weed control at 125 g/ha [5] | pest or weed control at 125 g/ha [6] | pest or weed control at 125 g/ha (kochia (Kochia scoparia) [7]) | pest or weed control at 125 g/ha [8] | pest or weed control at 125 g/ha [9] | pest or weed control at 125 g/ha [10] | plant injury at 125 g/ha [11] | Corn plant response rating (crop injury, 0 = no effect, 100 = complete kill) at 125 g/ha (corn (Zea mays)) | pest or weed control at 125 g/ha [12] | pest or weed control at 125 g/ha [13] | plant injury at 250 g/ha (rice (Oryza sativa)) | pest or weed control at 250 g/ha [14] | pest or weed control at 250 g/ha [15] | also measured
1 | FC(F)(F)CCCC1CCc2cccc(Oc3ncc(Cl)cn3)c21 (centres unmarked) [Compound 9, 5-Chloro-2-[[2,3-dihydro-3-(4,4,4-trifluorobutyl)-1H-inden-4-yl]oxy]pyrimidine] | 90% | 50% | 10% | 50% | 100% | 50% | 80% | 10% | 30% | 100% | 20% | 30% | 80% | 30% | 50% | 100% | 70% | pest or weed control at 31 g/ha ([1]; 31 g ai/ha): 10%; pest or weed control at 31 g/ha (kochia (Kochia scoparia) [2]; 31 g ai/ha): 10%; pest or weed control at 31 g/ha ([3]; 31 g ai/ha): 0%; pest or weed control at 31 g/ha ([4]; 31 g ai/ha): 10%; pest or weed control at 31 g/ha ([5]; 31 g ai/ha): 10%; pest or weed control at 31 g/ha ([6]; 31 g ai/ha): 20%; pest or weed control at 31 g/ha (kochia (Kochia scoparia) [7]; 31 g ai/ha): 50%; pest or weed control at 31 g/ha ([8]; 31 g ai/ha): 0%; pest or weed control at 31 g/ha ([9]; 31 g ai/ha): 10%; pest or weed control at 31 g/ha ([10]; 31 g ai/ha): 80%; plant injury at 31 g/ha ([11]; 31 g ai/ha): 10%; Corn plant response rating (crop injury, 0 = no effect, 100 = complete kill) at 31 g/ha (corn (Zea mays); 31 g ai/ha): 20%; pest or weed control at 31 g/ha ([12]; 31 g ai/ha): 20%; pest or weed control at 31 g/ha ([13]; 31 g ai/ha): 20%
2 | O=C1OC(CCCC(F)(F)F)c2c(Oc3ncc(Cl)cn3)cccc21 (centres unmarked) [Compound 1, 4-[(5-Chloro-2-pyrimidinyl)oxy]-3-(4,4,4-trifluorobutyl)-1(3H)-isobenzofuranone] | 100% | 100% | 80% | 80% | 100% | 70% | 100% | 10% | 50% | 100% | 30% | 40% | 40% | 100% | 0% | 20% | 0% | pest or weed control at 500 g/ha ([1]; 500 g ai/ha): 100%; pest or weed control at 500 g/ha (kochia (Kochia scoparia) [2]; 500 g ai/ha): 100%; pest or weed control at 500 g/ha ([3]; 500 g ai/ha): 90%; pest or weed control at 500 g/ha ([4]; 500 g ai/ha): 100%; pest or weed control at 500 g/ha ([5]; 500 g ai/ha): 100%; pest or weed control at 500 g/ha ([6]; 500 g ai/ha): 80%; pest or weed control at 500 g/ha (kochia (Kochia scoparia) [7]; 500 g ai/ha): 100%; pest or weed control at 500 g/ha ([8]; 500 g ai/ha): 40%; pest or weed control at 500 g/ha ([9]; 500 g ai/ha): 80%; pest or weed control at 500 g/ha ([10]; 500 g ai/ha): 100%; plant injury at 500 g/ha ([11]; 500 g ai/ha): 80%; Corn plant response rating (crop injury, 0 = no effect, 100 = complete kill) at 500 g/ha (corn (Zea mays); 500 g ai/ha): 60%; pest or weed control at 500 g/ha ([12]; 500 g ai/ha): 100%; pest or weed control at 500 g/ha ([13]; 500 g ai/ha): 100%
